Reference: patent EP4617278A1, “NUCLEOTIDE ANALOG, AND COMPOSITION AND USE THEREOF” (priority 2022, dated 2024)

System: SARS-CoV-2 replicon
Format: cell-based
Details: read-out: SARS-CoV-2 Replicon (Huh-7cell) EC50

Row | Compound | EC50
1 | CCC(CC)COC(=O)[C@H](C)N[P@](=O)(OCOC(=O)C(C)(C)C)OC[C@H]1O[C@@](C#N)(c2ccc3c(N)ncnn23)[C@H](OC(=O)C(C)(C)C)[C@@H]1OC(=O)C(C)(C)C [Compound 12a, (2R,3R,4R,5R)-2-(4-aminopyrrolo[2,1-f][1,2,4]triazin-7-yl)-2-cyano-5-((((R)-(((S)-1-(2-ethylbutoxy)-1-oxopropan-2-yl)amino)((pivaloyloxy)methoxy)phosphoryl)oxy)methyl)tetrahydrofuran-3,4-diyl bis(2,2-dimethylpropionate)] | 50 to 500 nM
2 | CC(C)C(=O)O[C@H]1[C@@H](OC(=O)C(C)C)[C@](C#N)(c2ccc3c(N)ncnn23)O[C@@H]1COP(=O)(OCOC(=O)C(C)(C)C)OCOC(=O)C(C)(C)C [Compound 29, (2R,3R,4R,5R)-2-(4-aminopyrrolo[2,1-f][1,2,4]triazin-7-yl)-5-((((bis(((tert-butylcarbonyl)oxy)methoxy))phosphoryl)oxy)methyl)-2-cyanotetrahydrofuran-3,4-diyl bis(2-methylpropionate)] | 10 to 50 nM
3 | (2R,3R,4R,5R)-2-(4-aminopyrrolo[2,1-f][1,2,4]triazin-7-yl)-5-((((bis(((isopropoxycarbonyl)oxy)methoxy))phosphoryl)oxy)methyl)-2-cyanotetrahydrofuran-3,4-diyldiisopropyl bis(carbonate) [Compound 28] | 10 to 50 nM
4 | CCC(CC)COC(=O)[C@H](Cc1ccccc1)N[P@](=O)(OC[C@H]1O[C@@](C#N)(c2ccc3c(N)ncnn23)[C@H](OC(=O)C(C)C)[C@@H]1OC(=O)C(C)C)Oc1ccc(C(C)(C)C)cc1 [Compound 53b, (2R,3R,4R,5R)-2-(4-aminopyrrolo[2,1-f][1,2,4]triazin-7-yl)-2-cyano-5-((((((S)-1-(2-ethylbutoxy)-1-oxo-3-phenylpropan-2-yl)amino)((S)-4-tert-butylphenoxy)phosphoryl)oxy)methyl)tetrahydrofuran-3,4-diyl bis(2-methylpropionate)] | 10 to 50 nM
5 | CCCCCCCCCCCCCCCCOCCCOP(=O)(OCOC(=O)OC(C)C)OC[C@H]1O[C@@](C#N)(c2ccc3c(N)ncnn23)[C@H](OC(=O)C(C)C)[C@@H]1OC(=O)C(C)C (mixture of isomers) [Compound 36, (2R,3R,4R,5R)-2-(4-aminopyrrolo[2,1-f][1,2,4]triazin-7-yl)-2-cyano-5-((((3-(hexadecyloxy)propoxy)(((isopropoxycarbonyl)oxy)methoxy)phosphoryl)oxy)methyl)tetr ahydrofuran-3,4-diyl bis(2-methylpropionate)] | 50 to 500 nM
6 | CC(C)OC(=O)OCO[P@@](=O)(N[C@@H](C)C(=O)OC(C)C)OC[C@H]1O[C@@](C#N)(c2ccc3c(N)ncnn23)[C@H](OC(=O)C(C)C)[C@@H]1OC(=O)C(C)C [Compound 3a, (2R,3R,4R,5R)-2-(4-aminopyrrolo[2,1-f][1,2,4]triazin-7-yl)-2-cyano-5-((((R)-(((S)-1-isopropoxy-1-oxopropan-2-yl)amino)(((isopropoxycarbonyl)oxy)methoxy)phosphoryl)oxy)methyl)tetrahydrofuran-3,4-diyl bis(2-methylpropionate)] | 10 to 50 nM
7 | CC(=O)O[C@H]1[C@@H](OC(C)=O)[C@](C#N)(c2ccc3c(N)ncnn23)O[C@@H]1CO[P@@](=O)(OCOC(=O)OC(C)C)Oc1ccc(C(C)(C)C)cc1 [Compound 22b, ((2R,3R,4R,5R)-2-(4-aminopyrrolo[2,1-f][1,2,4]triazin-7-yl)-5-((((R)-(4-tert-butylphenoxy)(((isopropoxycarbonyl)oxy)methoxy)phosphoryl)oxy)methyl)-2-cyanotetrahydrofuran-3,4-diyl diacetate] | 5 to 10 nM
8 | CCC(CC)COC(=O)C[C@H](N[P@](=O)(OC[C@H]1O[C@@](C#N)(c2ccc3c(N)ncnn23)[C@H](OC(=O)C(C)C)[C@@H]1OC(=O)C(C)C)Oc1ccccc1)C(=O)OCC(CC)CC [Compound 62b, (2R,3R,4R,5R)-2-(4-aminopyrrolo[2,1-f][1,2,4]triazin-7-yl)-2-cyano-5-((((S)-(((S)-1,4-bis(2-ethylbutoxy)-1,4-dioxobutan-2-yl)amino)(phenoxy)phosphoryl)oxy)methyl)tetrahydrofuran-3,4-diyl bis(2-methylpropionate)] | 10 to 50 nM
9 | CCC(CC)COC(=O)[C@H](C)N[P@](=O)(OCc1ccccc1C)OC[C@H]1O[C@@](C#N)(c2ccc3c(N)ncnn23)[C@H](OC(=O)C(C)C)[C@@H]1OC(=O)C(C)C [Compound 16a, (2R,3R,4R,5R)-2-(4-aminopyrrolo[2,1-f][1,2,4]triazin-7-yl)-2-cyano-5-((((S)-(((S)-1-(2-ethylbutoxy)-1-oxopropan-2-yl)amino)((2-methylbenzyl)oxy)phosphoryl)oxy)methyl)tetrahydrofuran-3,4-diyl bis(2-methylpropionate)] | 50 to 500 nM
10 | CCC(C)(C)COC(=O)[C@H](C)NP(=O)(OCOC(=O)OC(C)C)OC[C@H]1O[C@@](C#N)(c2ccc3c(N)ncnn23)[C@H](OC(=O)C(C)C)[C@@H]1OC(=O)C(C)C (mixture of isomers) [Compound 14, (2R,3R,4R,5R)-2-(4-aminopyrrolo[2,1-f][1,2,4]triazin-7-yl)-2-cyano-5-((((((S)-1-(2,2-dimethylbutoxy)-1-oxopropan-2-yl)amino)(((isopropoxycarbonyl)oxy)methoxy)phosphoryl)oxy)methyl)tetrahydrofuran-3,4-diyl bis(2-methylpropionate)] | 10 to 50 nM
11 | CCC(CC)COC(=O)[C@H](C)N[P@](=O)(OCOC(=O)C(C)(C)C)OC[C@H]1O[C@@](C#N)(c2ccc3c(N)ncnn23)[C@H](OC(=O)C(C)C)[C@@H]1OC(=O)C(C)C [Compound 11a, (2R,3R,4R,5R)-2-(4-aminopyrrolo[2,1-f][1,2,4]triazin-7-yl)-2-cyano-5-((((R)-(((S)-1-(2-ethylbutoxy)-1-oxopropan-2-yl)amino)((pivaloyloxy)methoxy)phosphoryl)oxy)methyl)tetrahydrofuran-3,4-diyl bis(2-methylpropionate)] | 10 to 50 nM
12 | CC(C)C(=O)O[C@H]1[C@@H](OC(=O)C(C)C)[C@](C#N)(c2ccc3c(N)ncnn23)O[C@@H]1CO[P@](=O)(OCOC(=O)C(C)(C)C)Oc1ccc(C(C)(C)C)cc1 [Compound 44a, (2R,3R,4R,5R)-2-(4-aminopyrrolo[2,1-f][1,2,4]triazin-7-yl)-5-(((((S)-4-tert-butylphenoxy)(((tert-butylcarbonyl)oxy)methoxy)phosphoryl)oxy)methyl)-2-cyanotetrahydrofuran-3,4-diyl bis(2-methylpropionate)] | 5 to 10 nM
13 | CCC(CC)COC(=O)C1(N[P@@](=O)(OC[C@H]2O[C@@](C#N)(c3ccc4c(N)ncnn34)[C@H](OC(=O)C(C)C)[C@@H]2OC(=O)C(C)C)Oc2ccccc2)CCC1 [Compound 40a, (2R,3R,4R,5R)-2-(4-aminopyrrolo[2,1-f][1,2,4]triazin-7-yl)-2-cyano-5-((((R)-((1-((2-ethylbutoxy)carbonyl)cyclobutyl)amino)(phenoxy)phosphoryl)oxy)methyl)tetrahydrofura n-3,4-diyl bis(2-methylpropionate)] | 10 to 50 nM
